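1) Cells in 96-well plates. 2) Compound, 48 h, 5 concentrations. 3) Linear interpolation between surrounding doses. 4) Unreached endpoint = highest concentration. GI50 marks 50% less growth.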 Calls of active or inactive are those of the source. Rule as the data show it: active = GI50 up to about 1.1 µM and inactive = higher.
How the values were obtained:
Assay in all cases: inhibition of tumour cell growth, NCI panel, 48 h
HCT-15 = system: HCT-15
SR = system: SR
HOP-92 = system: HOP-92
SNB-19 = system: SNB-19
NCI-H522 = system: NCI-H522
TK-10 = system: TK-10
K562 = system: K562
SK-OV-3 = system: SK-OV-3
786-0 = system: 786-0
OVCAR-3 = system: OVCAR-3
UACC-62 = system: UACC-62
COLO 205 = system: COLO 205
CAKI-1 = system: CAKI-1
A498 = system: A498
LOX IMVI = system: LOX IMVI
MOLT-4 = system: MOLT-4
SF-539 = system: SF-539
RXF 393 = system: RXF 393

SMILES	GI50 (HCT-15)	GI50 (SR)	GI50 (HOP-92)	GI50 (SNB-19)	GI50 (NCI-H522)	GI50 (TK-10)	GI50 (K562)	GI50 (SK-OV-3)	GI50 (786-0)	GI50 (OVCAR-3)	GI50 (UACC-62)	GI50 (COLO 205)	GI50 (CAKI-1)	GI50 (A498)	GI50 (LOX IMVI)	GI50 (MOLT-4)	GI50 (SF-539)	GI50 (RXF 393)
C[C@]12CCCC(=O)C1C[C@H](C(=O)O)CC2 (some centres undefined)	> 100 µM	> 100 µM (inactive)	> 100 µM (inactive)	> 100 µM (inactive)	> 100 µM (inactive)	> 100 µM (inactive)	> 100 µM (inactive)	> 100 µM (inactive)	> 100 µM (inactive)	> 100 µM (inactive)	> 100 µM (inactive)	> 100 µM (inactive)	> 100 µM (inactive)	> 100 µM (inactive)	> 100 µM (inactive)	> 100 µM (inactive)	> 100 µM (inactive)	
Cc1cc2nc3c(C(OC4OC(CO)C(O)C(O)C4O)C(O)CO)nn(-c4ccccc4)c3nc2cc1C (centres undefined)	> 100 µM	> 100 µM (inactive)		> 100 µM (inactive)	> 100 µM (inactive)	> 100 µM (inactive)	> 100 µM (inactive)	> 100 µM (inactive)	> 100 µM (inactive)	> 100 µM (inactive)	> 100 µM (inactive)			> 100 µM (inactive)	> 100 µM (inactive)	> 100 µM (inactive)	> 100 µM (inactive)	> 100 µM (inactive)
CCOc1ccc(/C=C(\Cl)c2ccc(OC)cc2)cc1	> 100 µM	> 100 µM (inactive)	> 100 µM (inactive)	> 100 µM (inactive)	> 100 µM (inactive)		> 100 µM (inactive)	> 100 µM (inactive)	> 100 µM (inactive)		> 100 µM (inactive)	> 100 µM (inactive)		25.2 µM (inactive)		> 100 µM (inactive)	> 100 µM (inactive)	> 100 µM (inactive)
CCC(C)(C)NS(=O)(=O)c1ccccc1	> 100 µM					> 100 µM (inactive)	> 100 µM (inactive)	> 100 µM (inactive)	> 100 µM (inactive)	> 100 µM (inactive)	> 100 µM (inactive)		> 100 µM (inactive)	> 100 µM (inactive)		> 100 µM (inactive)	> 100 µM (inactive)	> 100 µM (inactive)
COc1ccc(C[C@]23CCC(=O)N2CCc2cc(OC)c(O)cc23)cc1O	> 100 µM		> 100 µM (inactive)	> 100 µM (inactive)		> 100 µM (inactive)	> 100 µM (inactive)		> 100 µM (inactive)	> 100 µM (inactive)	> 100 µM (inactive)	> 100 µM (inactive)	> 100 µM (inactive)	> 100 µM (inactive)	> 100 µM (inactive)	> 100 µM (inactive)	> 100 µM (inactive)	> 100 µM (inactive)
COc1ccc(NC(=O)C(=O)C2NC(=S)NC2=O)c(OC)c1 (centres undefined)	> 100 µM		> 100 µM (inactive)	> 100 µM (inactive)		> 100 µM (inactive)	> 100 µM (inactive)	> 100 µM (inactive)	> 100 µM (inactive)	> 100 µM (inactive)	> 100 µM (inactive)	> 100 µM (inactive)		> 100 µM (inactive)	> 100 µM (inactive)	> 100 µM (inactive)	> 100 µM (inactive)	> 100 µM (inactive)
O=C(CSc1nnc(Cc2ccccc2)o1)Nc1ccccc1Cl	> 100 µM			> 100 µM (inactive)	> 100 µM (inactive)	> 100 µM (inactive)	> 100 µM (inactive)	> 100 µM (inactive)	> 100 µM (inactive)	> 100 µM (inactive)	> 100 µM (inactive)	> 100 µM (inactive)	> 100 µM (inactive)	> 100 µM (inactive)	> 100 µM (inactive)	> 100 µM (inactive)	> 100 µM (inactive)	
COc1cc(Br)c(CC2=NCCc3cc(OC)c(OC)cc32)cc1OC	31 µM	6.78 µM (inactive)	1.64 µM (inactive)	48.8 µM (inactive)	16.9 µM (inactive)	5.65 µM (inactive)	5.4 µM (inactive)	24.6 µM (inactive)	16.7 µM (inactive)	42.9 µM (inactive)	7.13 µM (inactive)	14.1 µM (inactive)	15.9 µM (inactive)	14.9 µM (inactive)	9.93 µM (inactive)	15.8 µM (inactive)	11.7 µM (inactive)	
O=C(c1cccs1)N(C(=S)N1CCN(c2ccccn2)CC1)C1CCCCC1	78 µM	36.6 µM (inactive)	66.2 µM (inactive)	> 100 µM (inactive)	66.2 µM (inactive)	> 100 µM (inactive)	47 µM (inactive)	> 100 µM (inactive)	> 100 µM (inactive)	57.3 µM (inactive)	> 100 µM (inactive)	22.4 µM (inactive)	76.2 µM (inactive)		77.4 µM (inactive)	33 µM (inactive)	> 100 µM (inactive)	22.5 µM (inactive)
CN(C)C(=S)/N=c1\ss/c(=N/c2ccccc2)n1C	> 100 µM	> 100 µM (inactive)	30.5 µM (inactive)	58.3 µM (inactive)		> 100 µM (inactive)	> 100 µM (inactive)	32.4 µM (inactive)	22.6 µM (inactive)		> 100 µM (inactive)		36.2 µM (inactive)	28.9 µM (inactive)	> 100 µM (inactive)	> 100 µM (inactive)	22.7 µM (inactive)	28.2 µM (inactive)
CC(=O)Oc1cc(C)c2c(c1OC(C)=O)CC1(O2)[C@@H](C)CCC2[C@@]3(C)CC[C@H](OC(C)=O)C(C)(C)C3CC[C@]21C (some centres undefined)	3.53 µM	3.03 µM (inactive)	3.14 µM (inactive)	7.31 µM (inactive)		3.61 µM (inactive)		5.36 µM (inactive)	2.28 µM (inactive)	2.72 µM (inactive)	2.46 µM (inactive)	1.63 µM (inactive)	2.2 µM (inactive)	7.46 µM (inactive)	4.24 µM (inactive)	4.57 µM (inactive)	2.81 µM (inactive)	1.26 µM (inactive)
O=[N+]([O-])c1ccc(OCCNc2cccc3ccccc23)cc1	9.73 µM		94.2 µM (inactive)	> 100 µM (inactive)	> 100 µM (inactive)	> 100 µM (inactive)	18.6 µM (inactive)	> 100 µM (inactive)	> 100 µM (inactive)	> 100 µM (inactive)	> 100 µM (inactive)	> 100 µM (inactive)	> 100 µM (inactive)	> 100 µM (inactive)		20.3 µM (inactive)	> 100 µM (inactive)	
O=C(Nc1nc2ccccc2n1Cc1ccc(Cl)cc1)NC12CC3CC(CC(C3)C1)C2	71.6 µM	27.9 µM (inactive)	19.9 µM (inactive)	24.9 µM (inactive)	16.1 µM (inactive)	32.5 µM (inactive)	32.3 µM (inactive)	16.2 µM (inactive)	20.5 µM (inactive)	22.6 µM (inactive)	17.3 µM (inactive)	36.2 µM (inactive)	34.7 µM (inactive)		34.1 µM (inactive)	> 100 µM (inactive)	24.3 µM (inactive)	20.5 µM (inactive)
N#C/N=C(\NCCc1c[nH]c2ccccc12)NCc1ccccc1	49.4 µM	32.5 µM (inactive)		68.9 µM (inactive)		98.4 µM (inactive)	42.8 µM (inactive)	> 100 µM (inactive)	25.5 µM (inactive)	42.8 µM (inactive)	53.6 µM (inactive)	61 µM (inactive)			75.9 µM (inactive)	34.9 µM (inactive)	> 100 µM (inactive)	> 100 µM (inactive)
CSC1(C)CC2C(CC1N1CCOCC1)C2(C)C (centres undefined)	> 100 µM		78.2 µM (inactive)			> 100 µM (inactive)	> 100 µM (inactive)	> 100 µM (inactive)	> 100 µM (inactive)	> 100 µM (inactive)		> 100 µM (inactive)				> 100 µM (inactive)	> 100 µM (inactive)	
CC(C)CCC[C@@H](C)C1CCC2[C@@H]3CC=C4C[C@@H](C(=O)NCCN(C)C)CC[C@]4(C)C3CC[C@@]21C (some centres undefined)	19 µM		5.89 µM (inactive)	28.6 µM (inactive)	41 µM (inactive)	23.7 µM (inactive)	33 µM (inactive)	> 100 µM (inactive)	17.3 µM (inactive)	31.4 µM (inactive)	42.4 µM (inactive)	19.5 µM (inactive)	22.3 µM (inactive)	32.5 µM (inactive)	51.4 µM (inactive)	31.1 µM (inactive)	17.1 µM (inactive)	> 100 µM (inactive)
CC(=O)OC1CC2C(C)(C)C(=O)C=C[C@]2(C)C2CCC3(C)C(c4ccoc4)C(=O)[C@H]4O[C@]43[C@]12C (some centres undefined)	15.1 µM		12.6 µM (inactive)	23.3 µM (inactive)	16.4 µM (inactive)	31.6 µM (inactive)	15.6 µM (inactive)	> 100 µM (inactive)	18.1 µM (inactive)		18 µM (inactive)	> 100 µM (inactive)	20.3 µM (inactive)	20.3 µM (inactive)	20 µM (inactive)	16 µM (inactive)	20 µM (inactive)	19.1 µM (inactive)
COc1ccc(CNc2cc(OC)cc(OC)c2)cc1			58.9 µM (inactive)	> 100 µM (inactive)	23.1 µM (inactive)		29.8 µM (inactive)	> 66.7 µM (inactive)	> 37.6 µM (inactive)	50.8 µM (inactive)	52 µM (inactive)	> 100 µM (inactive)			56.8 µM (inactive)	> 42.9 µM (inactive)		43.8 µM (inactive)

Source: ChEMBL document CHEMBL1201862, “PubChem BioAssay data set” (2004)
